As usually defined, the IC50 is the concentration that inhibits the measured activity by half. By GI50 is commonly meant the concentration at which growth is held to half of that of the control.

The results in this text go back to patent US7767659B2, “Synthesis of naturally occurring ecteinascidins and related compounds” (Pharma Mar, S.A., priority 2002, dated 2010).

Molecules are shown by their SMILES.

One assay relates to MEL-28 cells. The assay can be described thus: Inhibition of cell growth by counting cells. It counts as cell-based. The conditions noted are these: Homo sapiens, SK-MEL-28, 72 h; mel28 cells, three days of incubation. The source says:
(§1) The finality of these assays is to interrupt the growth of a “in vitro” tumor cell culture by means a continued exhibition of the cells to the sample to be testing.
(§2) This form of the assay employs 24 well multidishes of 16 mm diameter (Bergeron, 1984; Schroeder, 1981). The tumor cell lines employed are: P-388 (ATCC CCL 46), suspension culture of a lymphoid neoplasm from a DBA/2 mouse; A-549 (ATCC CCL 185), monolayer culture of a human lung carcinoma; HT-29 (ATCC HTB-38), monolayer culture of a human colon carcinoma; MEL-28 (ATCC HTB-72), monolayer culture of a human melanoma and DU-145 (ATCC HTB-81), monolayer culture of a human prostate carcinoma.
(§3) Cells were maintained, in logarithmic phase of growth in Eagle's Minimum Essential Medium, with Earle's Balanced Salts, with non-essential amino acids, with 2.0 mM L-Glutamine, without sodium bicarbonate (EMEM/neaa), supplemented with 10% Fetal Calf Serum (FCS), 10^−2 M. sodium bicarbonate and 0.1 U/1 penicillin G+0.1 g/l streptomycin sulfate.
(§4) A-549, HT-29, MEL-28 and DU-145 cells were seeded into 16 mm diameter wells at 1×10^4 cells per well in 1 ml aliquots of EMEM 5% FCS containing different concentrations of the sample to be tested. A separate set of cultures without drug was seeded as control of growth, to ensure that cells remained in exponential phase of growth. All determinations are caring out in duplicate. After three days of incubation at 37° C., 5% CO2 in a 98% humid atmosphere cells were stained with 0.1% crystal violet. An approximately IC50 was determined by comparing the growth in wells with drug to the growth in wells control.
(§5) For quantifying the activity, after the incubation time, cells are trypsinized and counted in a Coulter Counter ZM. All counts (net cells per well), represent the average of duplicate wells. % G, percent of growth relative to cultures without drug.
(§6) For this technique, compounds which show IC50 values smaller than 1 μg/ml are selected to continue with further studies.

In another assay the test system is HT-29 cells. The assay can be described thus: Inhibition of cell growth by counting cells. It is filed as cell-based. The conditions noted are these: Homo sapiens, HT-29, 72 h; ht29 cells, three days of incubation.
From the text: as §1, §2, §3, §4, §5, §6

A further assay concerns A-549 cells. The assay can be described thus: Inhibition of cell growth by counting cells. It counts as cell-based. The following applies: Homo sapiens, 72 h; a549 cells, three days of incubation.
From the text: as §1, §2, §3, §4, §5, §6

A further assay concerns P-388 cells. As to the kind of experiment: Inhibition of cell growth by counting cells. The following applies: Mus musculus, 72 h; p388 cells, three days of incubation. It is filed as cell-based.
From the text: as §1, §2, §3
P-388 cells were seeded into 16 mm diameter wells at 1×10^4 cells per well in 1 ml aliquots of EMEM 5% FCS containing different concentrations of the sample to be tested. […]
For quantifying the activity, after the incubation time, cells are trypsinized and counted in a Coulter Counter ZM. […]

A further assay concerns A-549. The assay can be described thus: cells. The conditions noted are these: Homo sapiens, A549, 48 h. An outline of the steps: (§7)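 Colorimetric SRB read (490 nm) on triplicate wells after 48 h at 37 °C, 5% CO2. Dose range 10 to 10^−8 μg/ml; 5×10^3 cells/well pre-attached 18 h.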
The test system of the next assay is HT-29. The assay can be described thus: cells. The conditions noted are these: Homo sapiens, HT-29, 48 h. In a few lines:
as §7

For the next assay, the system named is A-498. The assay can be described thus: Inhibition of cells growth by colorimetric assay (SRB). An outline of the steps:
as §7

The test system of the next assay is MCF-7. Described as above. In a few lines: as §7
A further assay has as its system DU-145. The assay is described as above. The following applies: Homo sapiens, DU-145, 48 h. In a few lines: as §7
In the next assay the test system is SK-MEL-28. The description is as above. The conditions noted are these: Homo sapiens, SK-MEL-28, 48 h. An outline of the steps: as §7
For another assay, the system named is OVCAR-3. The description is as above. An outline of the steps:
as §7

The next assay deals with MDA-MB-231. Described as above. An outline of the steps: as §7
The next assay has as its system SW620. The assay is described as above. An outline of the steps: as §7
A further assay has as its system DU-145 cells. The assay can be described thus: Inhibition of cell growth by counting cells. The conditions noted are these: Homo sapiens, DU-145, 72 h; du145 cells, three days of incubation. It counts as cell-based.
From the text: as §1, §2, §3, §4, §5, §6

Take `COc1c(C)cc2c(c1O)[C@@H]1C3[C@@H]4SCC(=O)C(=O)OC[C@@H](c5c6c(c(C)c(OC(C)=O)c54)OCO6)N3[C@@H](C#N)[C@H](C2)N1C` (stereo partly drawn) [compound 16]: the IC50 in the assay on MEL-28 cells, in the assay on HT-29 cells, with A-549 cells and with P-388 cells was 16.3 nM in each case.

`COc1c(C)cc2c(c1O)C1C3[C@@H]4SCC(=O)C(=O)OC[C@@H](c5c6c(c(C)c(OC(C)=O)c54)OCO6)N3[C@@H](O)[C@H](C2)N1C` (stereo partly drawn) [Et-594]: the GI50 with A-549 (read-out: A549 GI50) was 49 nM; in the assay with HT-29 (read-out: HT29 GI50), 49 nM; with A-498 (Homo sapiens, A498, 48 h, read-out: A498 GI50), 81.7 nM; with MCF-7 (Homo sapiens, MCF7, 48 h, read-out: MCF GI50), 32.7 nM; with DU-145 (read-out: DU145 GI50) it was 32.7 nM; in the assay with SK-MEL-28 (read-out: MEL-28 GI50), 32.7 nM. The GI50 came out at 32.7 nM in the assay on OVCAR-3 (Homo sapiens, OVCAR-3, 48 h, read-out: OVCAR GI50); 32.7 nM with MDA-MB-231 (Homo sapiens, MDA-MB-231, 48 h, read-out: MB231 GI50); 32.7 nM in the assay with SW620 (Homo sapiens, SW-620, 48 h, read-out: SW-620 GI50). Besides, the CC50 in the assay with A-549 (read-out: A549 LC50) amounted to 654 nM; in the assay with HT-29 (read-out: HT29 LC50), 1630 nM; in the assay with A-498 (Homo sapiens, A498, 48 h, read-out: A498 LC50), 11400 nM; in the assay with MCF-7 (Homo sapiens, MCF7, 48 h, read-out: MCF LC50) it was 3270 nM; with DU-145 (read-out: DU145 LC50), 163 nM; with SK-MEL-28 (read-out: MEL-28 LC50), 131 nM. For the same molecule, the CC50 with OVCAR-3 (Homo sapiens, OVCAR-3, 48 h, read-out: OVCAR LC50) worked out at 16300 nM; with MDA-MB-231 (Homo sapiens, MDA-MB-231, 48 h, read-out: MB231 LC50), 1630 nM; in the assay with SW620 (Homo sapiens, SW-620, 48 h, read-out: SW-620 LC50), 3270 nM. Besides, the IC (TGI) stood at 131 nM in the assay on A-549 (read-out: A549 TGI), 98 nM with HT-29 (read-out: HT29 TGI), 81.7 nM with DU-145 (read-out: DU145 TGI) and 65.4 nM in the assay with SK-MEL-28 (read-out: MEL-28 TGI). In addition, in the assay on A-498 (A498, SRB, 48 hours exposure), the “A498 TGI” value was 3.27E−07 Molar. Besides, the “MCF TGI” value in the assay with MCF-7 (MCF, SRB, 48 hours exposure) is reported as 9.80E−08 Molar. Moreover, the “OVCAR TGI” value in the assay with OVCAR-3 (OVCAR, SRB, 48 hours exposure) is reported as 1.14E−07 Molar. For the same molecule, the “MB231 TGI” value in the assay on MDA-MB-231 (MB231, SRB, 48 hours exposure) was 1.14E−07 Molar. The “SW-620 TGI” value with SW620 (SW-620, SRB, 48 hours exposure) was determined as 9.80E−08 Molar.

Regarding `COc1c(C)cc2c(c1O)[C@@H]1C3[C@@H]4SCC(NC(C)=O)C(=O)OC[C@@H](c5c6c(c(C)c(OC(C)=O)c54)OCO6)N3[C@@H](C#N)[C@H](C2)N1C` (stereo partly drawn) [compound 19], the IC50 in the assay with MEL-28 cells, in the assay on HT-29 cells, in the assay with DU-145 cells, in the assay on A-549 cells and with P-388 cells was 0.753 nM in each case.
